Read-outs that look alike come from different tables or passages of the source.
Tests used:
[1] = Acute toxicity in the mouse (LD 50, Litchfield and Wilcoxon); conditions: in vivo
Protocol: The acute toxicity of the derivatives of the invention were studied by intraperitoneal administration (I.P.) on the mouse (10 animals, 5 males and 5 females per dose) and calculation of the lethal dose 50 (LD 50) in accordance with the method of Litchfield and Wilcoxon (J. Pharmacol. 96, 99-113 (1949)).
In certain cases (derivatives of Examples 4, 6, 9), the LD 50 was also calculated after oral administration (P.O.) of the derivatives.

anesthetized dog [2] = assay: Hemodynamic (cardiovascular) tolerance in the anesthetized dog; type: in vivo; conditions: i.v.; for Cardiac Flow, percentage of variation / Cardiac Frequency, percentage of variation / Systolic Arterial Pressure, percentage of variation / Total Peripheral Resistances, percentage of variation / dp/dt/p Left Ventricular, percentage of variation: vs control period
Protocol: The hemodynamic tolerance of the derivatives of the invention was studied on dogs anesthesized with sodium pentobarbital. Endocavitary pressures were measured by means of catheters connected to Statham sensors while external recording of the electrocardiogram (E.C.G.) provided the measurement of cardiac frequency. Cardiac flow was measured by means of an electromagnetic sensor placed on the beginning of the aorta. The total peripheral resistances R were calculated from the value of the average aortic pressure (P) and the cardiac flow (Q) in accordance with the formula R=P/Q.
After measurement of the parameters during a control period, the derivatives were injected intravenously in cumulative doses (30 minute interval between doses). The variations of the parameters in relation to the control period were measured within 20 and 30 minutes after each injection and are expressed as a percentage of variation in relation to the control.
Table 2 summarizes the variations in hemodynamic parameters observed between the first and last injections.

[3] = tested on: anoxic ventricular fibrillation; assay: Lawson test (cardiac antifibrillatory power, chloroform); type: in vivo; conditions: ip; mouse, intraperitoneal, 10 minutes before chloroform
Protocol: The Lawson test is a test for the study of the cardiac antifibrillatory power of the derivatives. The mice (20 per group) received an intraperitoneal injection of the derivative 10 minutes before being placed in a chloroform-saturated atmosphere. Upon respiratory arrest, the thorax was opened (5 to 10 seconds) and whether or not the heart was in ventricular fibrillation was checked. The efficacy dose 50 (ED 50) of the derivative being studied is the dose which protects half the mice against anoxic ventricular fibrillation.

anesthetized dog [4] = assay: Electrophysiological studies on the anesthetized dog; type: in vivo; conditions: i.v.
Protocol: This study was carried out on dogs anesthetized with pentobarbital, with a closed thorax, by means of bipolar catheter-electrodes introduced into the cardiac cavities by transcutaneous venous and arterial means. The surface electrocardiogram (standard derivation D2) is recorded permanently.
By means of a programmable JANSEN (R) stimulator, the following parameters may be measured:
spontaneous cardiac frequency (FC);
sinus recuperation time (SRTc) after auricular stimulation imposed at 160 b/mn for 1 mn;
intracardiac conduction times (auriculohisien at a constant frequency, His-Purkinje, intraventricular);
the effective and functional refractory periods measured at an imposed constant frequency, with the extrastimulus method.
During the electrophysiological study, the derivatives were injected intravenously for 2 minutes for each dose and at 30 minute intervals between each dose. The doses are expressed as a cumulative value and as a base term.
The measurement of the various parameters was carried out before the injection of the first dose (control period) and from 10 to 28 minutes after the injection of each dose of the substance. The results are expressed as a percentage of variation in relation to the control period.

[5] = tested on: ventricular arrhythmias with adrenalin; assay: Test with adrenalin after experimental infarct; type: in vivo, dog
Text: (§1) Narcisse et al, Ann. Pharma. Fr., 37, 325-330 (1979), in the rat by the aconitine intoxication test of S. Witchitz et al, Coeur Med. Int., X(2), 281-286, (1971) and in the dog by the Harris test described in Circulation, 1, 1318, (1950) and by the test with adrenalin after experimental infarct of I. J. Steffe et al, J. Pharmacol. Exp. Ther., 214, 50-57 (1980).
2 to 5 days after an experimental infarct, the effects of discontinuous injections (in intravenous bolus of […] of basic adrenalin) of adrenalin were observed on the electrocardioagram of the conscious dog.
During a first phase (control) of the experiment, three successive injections of adrenalin were given and, in the 2 minutes following each injection, the frequency of the ventricular extrasystoles was measured. In this manner, by increasing the dose of adrenalin as necessary, it was possible to determine the dose which caused the appearance of ventricular extrasystoles at a higher frequency than or equal to half the total number of ventricular systoles.
After injection of the derivative to be tested, the same dose of adrenalin was reinjected after 5 minutes, then 30 minutes, 60 minutes, 90 minutes, etc., and its effects were compared to those observed during the control period.
The results therein are expressed as a percentage of extrasystoles (on the total number of systoles) measured during the 2 minutes following the injection of adrenalin before and after the administration of the derivative to be tested.

[6] = Lawson test (cardiac antifibrillatory power, chloroform); conditions: in vivo, ip; mouse, intraperitoneal; read-out: Maximum Dose Tolerated
[7] = tested on: ventricular arrhythmias and death induced by the aconitine; assay: Aconitine intoxication test in the anesthetized rat; type: in vivo; conditions: i.v., vs untreated control
Text: as §1
The anesthetized rat was intoxicated with an intravenous perfusion of aconitine while its electrocardiogram (ECG) was permanently recorded. During the perfusion at constant rate, the time necessary for the appearance of ventricular arrhythmias, successive extrasystoles (ESV), then stable ventricular tachycardium (TV) and the time within which the animal died were measured.
The animals were divided into a control group (untreated) and treated groups (different doses). The results are expressed as a percentage of prolonging the time of appearance of the arrhythmias and of death of the treated groups in reaction to the control group.
The results obtained are shown in Table 4 below and express the percentage of prolongation of the time of appearance of ventricular arrhythmias (ventricular extrasystoles and ventricular tachycardiums), and of the death, induced by the aconitine after an intravenous injection (I.V.) of several derivatives of the invention, in relation to a group of untreated control animals.

[8] = ip, intraperitoneal, read-out: LD 50 I.P.
[9] = cumulative doses 0.1 to 3 mg/kg
[10] = doses 0.5 to 5 mg/kg, 3 evaluations
[11] = 4.3 mg/kg, control period 94% of ESV
[12] = 10 mg/kg, control period 40% of ESV
[13] = cumulative doses 0.3 to 10 mg/kg
[14] = 4 mg/kg, control period 71% of ESV
[15] = cumulative doses 0.1 to 1 mg/kg
[16] = doses 0.1 to 1.4 mg/kg, 1 evaluation
[17] = 1.3 mg/kg, control period 85% of ESV

CC1(NC(=O)c2ccc(N)cc2)C2CC3CC1CN(C2)C3(C)C (stereo not shown) [Example 3, N-(p-aminobenzoyl)-4-amino-4,8,8-trimethyl-1-azaadamantane]
LD50 [1, 8]: 95 mg/kg
Cardiac Flow, percentage of variation (anesthetized dog [2]; [9]): +7 to -32%
Cardiac Frequency, percentage of variation (anesthetized dog [2]; [9]): 0 to -14%
Systolic Arterial Pressure, percentage of variation (anesthetized dog [2]; [9]): -3 to -33%
Total Peripheral Resistances, percentage of variation (anesthetized dog [2]; [9]): -10 to +7%
dp/dt/p Left Ventricular, percentage of variation (anesthetized dog [2]; [9]): +14 to -50%
ED50 [3]: 37 mg/kg
F.C. (cardiac frequency), variation (anesthetized dog [4]; [10]): 0 to -24%
HV (time of His-Purkinje conduction), variation (anesthetized dog [4]; [10]): +13 to +98%
PREA (effective auricular refractory period), variation (anesthetized dog [4]; [10]): +2 to +50%
PREV (effective ventricular refractory period), variation (anesthetized dog [4]; [10]): 0 to +20%
QRS (time of intraventricular conduction), variation (anesthetized dog [4]; [10]): +8 to +39%
St-H (time of auriculohisien conduction), variation (anesthetized dog [4]; [10]): +2 to +76%
ESV Percentage at 5 min [5, 11]: 63%
ESV Percentage at 30 min [5, 11]: 77%
ESV Percentage at 60 min [5, 11]: 90%
MTD [6]: 50 mg/kg

CC1(NC(=O)c2ccccc2)C2CC3CC1CN(C2)C3(C)C (stereo not shown) [Example 7, 4-N-benzoylamino-4,8,8-trimethyl-1-azaadamantane]
LD50 [1, 8]: 230 mg/kg
Prolongation of time of appearance of ventricular extrasystoles (ESV) ([7]; 5 mg/kg): +59%
Prolongation of time of appearance of ventricular tachycardium (TV) ([7]; 5 mg/kg): +53%
Prolongation of time to death ([7]; 5 mg/kg): +29%
Prolongation of time of appearance of ventricular extrasystoles (ESV) ([7]; 10 mg/kg): +35%
Prolongation of time of appearance of ventricular tachycardium (TV) ([7]; 10 mg/kg): +35%
Prolongation of time to death ([7]; 10 mg/kg): +45%
Prolongation of time of appearance of ventricular extrasystoles (ESV) ([7]; 20 mg/kg): +111%
Prolongation of time of appearance of ventricular tachycardium (TV) ([7]; 20 mg/kg): +105%
Prolongation of time to death ([7]; 20 mg/kg): +89%
ED50 [3]: 76 mg/kg
MTD [6]: 150 mg/kg

COc1ccc(CCC(=O)NC2(C)C3CC4CC2CN(C3)C4(C)C)cc1 (stereo not shown) [Example 5, N-[3-(p-methoxy-phenyl)propionyl]-4-amino-4,8,8-trimethyl-1-azaadamantane]
LD50 [1, 8]: 250 mg/kg
Prolongation of time of appearance of ventricular extrasystoles (ESV) ([7]; 5 mg/kg): +41%
Prolongation of time of appearance of ventricular tachycardium (TV) ([7]; 5 mg/kg): +20%
Prolongation of time to death ([7]; 5 mg/kg): +21%
Prolongation of time of appearance of ventricular extrasystoles (ESV) ([7]; 10 mg/kg): +51%
Prolongation of time of appearance of ventricular tachycardium (TV) ([7]; 10 mg/kg): +48%
Prolongation of time to death ([7]; 10 mg/kg): +36%
Prolongation of time of appearance of ventricular extrasystoles (ESV) ([7]; 20 mg/kg): +65%
Prolongation of time of appearance of ventricular tachycardium (TV) ([7]; 20 mg/kg): +54%
Prolongation of time to death ([7]; 20 mg/kg): +50%
Cardiac frequency, in words (anesthetized dog [2]; anesthetized dog): the frequency does not change
Cardiac Flow, percentage of variation (anesthetized dog [2]; cumulative doses 1 to 10 mg/kg): +4 to -8%
Cardiac Frequency, percentage of variation (anesthetized dog [2]; cumulative doses 1 to 10 mg/kg): 0%
Systolic Arterial Pressure, percentage of variation (anesthetized dog [2]; cumulative doses 1 to 10 mg/kg): 0 to +3%
Total Peripheral Resistances, percentage of variation (anesthetized dog [2]; cumulative doses 1 to 10 mg/kg): -6 to +11%
dp/dt/p Left Ventricular, percentage of variation (anesthetized dog [2]; cumulative doses 1 to 10 mg/kg): +2 to -15%
ED50 [3]: 61 mg/kg
ESV Percentage at 5 min [5, 12]: 9%
ESV Percentage at 30 min [5, 12]: 14%
ESV Percentage at 60 min [5, 12]: 16%
MTD [6]: 200 mg/kg

COc1ccc(C(=O)NC2(C)C3CC4CC2CN(C3)C4(C)C)cc1 (stereo not shown) [Example 8, N-(p-methoxybenzoyl)-4-amino 4,8,8-trimethyl-1-azaadamantane]
LD50 [1, 8]: 250 mg/kg
Prolongation of time of appearance of ventricular extrasystoles (ESV) ([7]; 5 mg/kg): +45%
Prolongation of time of appearance of ventricular tachycardium (TV) ([7]; 5 mg/kg): +43%
Prolongation of time to death ([7]; 5 mg/kg): +46%
Prolongation of time of appearance of ventricular extrasystoles (ESV) ([7]; 10 mg/kg): +71%
Prolongation of time of appearance of ventricular tachycardium (TV) ([7]; 10 mg/kg): +84%
Prolongation of time to death ([7]; 10 mg/kg): +215%
Prolongation of time of appearance of ventricular extrasystoles (ESV) ([7]; 20 mg/kg): +98%
Prolongation of time of appearance of ventricular tachycardium (TV) ([7]; 20 mg/kg): +107%
Prolongation of time to death ([7]; 20 mg/kg): +112%
Cardiac frequency, maximum variation (anesthetized dog [2]; anesthetized dog): -15%
Cardiac Flow, percentage of variation (anesthetized dog [2]; [13]): -7 to -22%
Cardiac Frequency, percentage of variation (anesthetized dog [2]; [13]): -7 to -15%
Systolic Arterial Pressure, percentage of variation (anesthetized dog [2]; [13]): -6 to -21%
Total Peripheral Resistances, percentage of variation (anesthetized dog [2]; [13]): 0%
dp/dt/p Left Ventricular, percentage of variation (anesthetized dog [2]; [13]): 0 to -28%
ED50 [3]: 49 mg/kg
ESV Percentage at 5 min [5, 14]: 35%
ESV Percentage at 30 min [5, 14]: 36%
ESV Percentage at 60 min [5, 14]: 53%
MTD [6]: 100 mg/kg

CC1(NC(=O)CC(c2ccccc2)c2ccccc2)C2CC3CC1CN(C2)C3(C)C (single isomer, unassigned) [Example 6, N-(3,3-diphenylpropionyl)-4-amino-4,8,8-trimethyl-1-azaadamantane]
LD50 [1, 8]: 51 mg/kg
LD50 ([1]; oral, read-out: LD 50 P.O.): 380 mg/kg
Prolongation of time of appearance of ventricular extrasystoles (ESV) ([7]; 1 mg/kg): +52%
Prolongation of time of appearance of ventricular tachycardium (TV) ([7]; 1 mg/kg): +93%
Prolongation of time to death ([7]; 1 mg/kg): +69%
Prolongation of time of appearance of ventricular extrasystoles (ESV) ([7]; 2 mg/kg): +67%
Prolongation of time of appearance of ventricular tachycardium (TV) ([7]; 2 mg/kg): +139%
Prolongation of time to death ([7]; 2 mg/kg): +97%
Cardiac frequency, maximum variation (anesthetized dog [2]; anesthetized dog): +10%
Cardiac Flow, percentage of variation (anesthetized dog [2]; [15]): -3 to -18%
Cardiac Frequency, percentage of variation (anesthetized dog [2]; [15]): -3 to +10%
Systolic Arterial Pressure, percentage of variation (anesthetized dog [2]; [15]): -8 to -16%
Total Peripheral Resistances, percentage of variation (anesthetized dog [2]; [15]): 0%
dp/dt/p Left Ventricular, percentage of variation (anesthetized dog [2]; [15]): -6 to -13%
F.C. (cardiac frequency), variation (anesthetized dog [4]; [16]): 0 to +32%
HV (time of His-Purkinje conduction), variation (anesthetized dog [4]; [16]): 0 to +92%
PREA (effective auricular refractory period), variation (anesthetized dog [4]; [16]): +18 to +50%
PREV (effective ventricular refractory period), variation (anesthetized dog [4]; [16]): +10 to +20%
QRS (time of intraventricular conduction), variation (anesthetized dog [4]; [16]): 0 to +50%
St-H (time of auriculohisien conduction), variation (anesthetized dog [4]; [16]): 0 to +25%
ESV Percentage at 5 min [5, 17]: 29%
ESV Percentage at 30 min [5, 17]: 17%
ESV Percentage at 60 min [5, 17]: 17%
